Assay results from ChEMBL document CHEMBL1201862, “PubChem BioAssay data set” (2004).
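Cells were grown in 96-well plates and exposed to each compound for 48 hours at five concentrations; endpoints were interpolated linearly between bracketing concentrations, or set to the highest concentration if not reached. Here, GI50 denotes the concentration required for 50% inhibition of growth.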 Active and inactive are the calls of the source. No stated cut-off is given here; in the data, active = GI50 up to about 1.1 µM and inactive = higher.

Legend:
Experiment in all cases: DTP human tumour cell line panel, 48 h
HOP-92 = tested on: HOP-92
NCI-H23 = tested on: NCI-H23
IGROV-1 = tested on: IGROV-1
KM12 = tested on: KM12
SF-295 = tested on: SF-295
MDA-N = tested on: MDA-N
RXF 393 = tested on: RXF 393
DU-145 = tested on: DU-145
MDA-MB-435 = tested on: MDA-MB-435
MCF7 = tested on: MCF7
A498 = tested on: A498
NCI-H460 = tested on: NCI-H460
PC-3 = tested on: PC-3
Hs-578T = tested on: Hs-578T
UO-31 = tested on: UO-31

Measured: GI50

CC1=NC(=N)N=C(C)C1/N=N/c1ccc2[nH]c(C)nc2c1 (stereo not given)
inactive: HOP-92 > 100 µM | NCI-H23 > 100 µM | IGROV-1 > 100 µM | KM12 > 100 µM | SF-295 > 100 µM | MDA-N > 100 µM | RXF 393 > 100 µM | DU-145 > 100 µM | MDA-MB-435 > 100 µM | MCF7 > 100 µM | A498 > 100 µM | NCI-H460 > 100 µM | PC-3 > 100 µM | Hs-578T > 100 µM

O=C(/C=C1\Nc2ccc([N+](=O)[O-])cc2N=C1NC12CC3CC(CC(C3)C1)C2)c1ccccc1
inactive: NCI-H23 > 10 µM | IGROV-1 > 10 µM | KM12 > 10 µM | SF-295 > 10 µM | MDA-N > 10 µM | RXF 393 6.53 µM | DU-145 > 10 µM | MDA-MB-435 > 10 µM | MCF7 > 10 µM | A498 3.85 µM | NCI-H460 > 10 µM | PC-3 > 10 µM | UO-31 > 10 µM | Hs-578T 3.76 µM

NC(=O)c1ccc[n+](C2=C([N-]S(=O)(=O)c3ccccc3)C(=O)c3ccccc3C2=O)c1
inactive: HOP-92 13.6 µM | NCI-H23 14.9 µM | IGROV-1 11.8 µM | KM12 13.1 µM | SF-295 17.5 µM | MDA-N 16.7 µM | RXF 393 15.8 µM | DU-145 19.1 µM | MDA-MB-435 4.89 µM | MCF7 14.8 µM | NCI-H460 17.9 µM | PC-3 15.9 µM | UO-31 14.5 µM | Hs-578T 22 µM

CCCCCCCCCCCCCCCCOCC(Cl)CP(=O)(O)OP(=O)(O)OCC1OC(n2cnc3c(N)ncnc32)C(O)C1O (stereo not given)
inactive: HOP-92 > 100 µM | NCI-H23 > 100 µM | IGROV-1 > 100 µM | KM12 > 100 µM | MDA-N > 100 µM | RXF 393 61.8 µM | DU-145 > 100 µM | MDA-MB-435 > 100 µM | MCF7 > 100 µM | A498 > 100 µM | NCI-H460 47.5 µM | PC-3 > 100 µM | UO-31 > 100 µM | Hs-578T > 100 µM

CC1CC/C(=C\c2ccc(F)cc2)C2=C1C(c1ccc(F)cc1)NC(=S)N2 (stereo not given)
inactive: NCI-H23 30.7 µM | IGROV-1 43.5 µM | KM12 24.7 µM | SF-295 54.7 µM | MDA-N 67.8 µM | RXF 393 25.2 µM | DU-145 46.8 µM | MDA-MB-435 57.7 µM | MCF7 53.3 µM | A498 30.5 µM | NCI-H460 20.4 µM | PC-3 30 µM | UO-31 23.2 µM | Hs-578T > 100 µM

CN(C)CCNCCN
inactive: HOP-92 > 100 µM | NCI-H23 > 100 µM | IGROV-1 > 100 µM | KM12 > 100 µM | SF-295 > 100 µM | MDA-N > 100 µM | DU-145 > 100 µM | MDA-MB-435 > 100 µM | MCF7 > 100 µM | A498 > 100 µM | NCI-H460 > 100 µM | PC-3 > 100 µM | UO-31 > 100 µM | Hs-578T > 100 µM

Cc1cc2nc(C=C(C(F)(F)F)C(F)(F)F)sc2cc1C
inactive: HOP-92 4.66 µM | NCI-H23 1.46 µM | IGROV-1 2.21 µM | KM12 1.7 µM | SF-295 3.15 µM | MDA-N 1.44 µM | RXF 393 1.16 µM | DU-145 3.37 µM | MDA-MB-435 1.21 µM | MCF7 2.63 µM | A498 4.2 µM | NCI-H460 3.58 µM | PC-3 1.65 µM | UO-31 2.53 µM | Hs-578T 1.87 µM

OCc1cc2c([nH]c3ccccc32)c(C(O)CO)n1 (stereo not given)
inactive: HOP-92 > 100 µM | NCI-H23 > 100 µM | IGROV-1 > 100 µM | KM12 > 100 µM | SF-295 > 100 µM | MDA-N > 100 µM | DU-145 > 100 µM | MDA-MB-435 > 100 µM | MCF7 > 100 µM | A498 > 100 µM | NCI-H460 > 100 µM | PC-3 > 100 µM | UO-31 > 100 µM | Hs-578T > 100 µM

COC(=O)C(=O)C(C(=O)C(=O)Nc1cccc(OC)c1)c1nc2ccc(Cl)cc2nc1O (stereo not given)
inactive: HOP-92 74.5 µM | NCI-H23 > 100 µM | IGROV-1 > 100 µM | KM12 > 100 µM | SF-295 > 100 µM | MDA-N > 100 µM | DU-145 > 100 µM | MDA-MB-435 83.6 µM | MCF7 > 100 µM | A498 > 100 µM | NCI-H460 > 100 µM | PC-3 > 100 µM | UO-31 > 100 µM | Hs-578T 72.4 µM

CCOC(=O)c1cc2c3ccn(Cc4ccccc4)c3c3c(C)noc3c2[nH]1
inactive: NCI-H23 > 100 µM | IGROV-1 > 100 µM | KM12 > 100 µM | SF-295 > 100 µM | MDA-N > 100 µM | RXF 393 > 100 µM | DU-145 > 100 µM | MDA-MB-435 > 100 µM | MCF7 > 100 µM | A498 > 100 µM | NCI-H460 > 100 µM | PC-3 > 100 µM | UO-31 > 100 µM | Hs-578T > 100 µM

C#CCOC(=O)C(N)CS (stereo not given)
inactive: HOP-92 > 100 µM | NCI-H23 > 100 µM | IGROV-1 > 100 µM | KM12 > 100 µM | SF-295 > 100 µM | MDA-N > 100 µM | RXF 393 > 100 µM | DU-145 > 100 µM | MDA-MB-435 > 100 µM | MCF7 > 100 µM | A498 > 100 µM | PC-3 > 100 µM | UO-31 > 100 µM | Hs-578T > 100 µM

Cn1c(=O)c2c(ncn2Cc2ccc(O)c([N+](=O)[O-])c2)n(C)c1=O
inactive: NCI-H23 > 100 µM | IGROV-1 > 100 µM | KM12 > 100 µM | SF-295 > 100 µM | MDA-N > 100 µM | DU-145 > 100 µM | MDA-MB-435 > 100 µM | MCF7 > 100 µM | A498 > 100 µM | NCI-H460 > 100 µM | PC-3 > 100 µM | UO-31 > 100 µM | Hs-578T > 100 µM

CCSC1=N/C(=C/c2ccccc2O)C(=O)N1
inactive: HOP-92 89.1 µM | NCI-H23 > 100 µM | IGROV-1 87.3 µM | KM12 51.1 µM | SF-295 91 µM | MDA-N > 100 µM | RXF 393 26.4 µM | DU-145 > 100 µM | MDA-MB-435 > 100 µM | MCF7 > 100 µM | NCI-H460 > 100 µM | PC-3 > 100 µM | UO-31 38.5 µM | Hs-578T 33.7 µM

Cc1nn(C(=O)c2ccncc2)c2c1C(c1ccccc1O)SC(=N)N2 (stereo not given)
inactive: HOP-92 > 10 µM | NCI-H23 > 10 µM | IGROV-1 > 10 µM | KM12 > 10 µM | SF-295 > 10 µM | MDA-N > 10 µM | RXF 393 > 10 µM | DU-145 > 10 µM | MDA-MB-435 > 10 µM | MCF7 > 10 µM | NCI-H460 > 10 µM | PC-3 > 10 µM | Hs-578T > 10 µM

C=CCOc1ccc(C(=N/NC(=O)c2ccccc2)/N=N/c2ccc(C)cc2)cc1OC
inactive: HOP-92 8.79 µM | NCI-H23 20.2 µM | IGROV-1 18.7 µM | KM12 18.1 µM | SF-295 32 µM | MDA-N 20.7 µM | DU-145 37.2 µM | MDA-MB-435 19.5 µM | MCF7 35.1 µM | A498 25.6 µM | NCI-H460 18.4 µM | PC-3 25.7 µM | UO-31 24.8 µM | Hs-578T 23.4 µM

CC(C)C1=CCC2C(=C1)CCC1C(C)(C(=O)O)CCCC21C (stereo not given)
inactive: HOP-92 > 100 µM | NCI-H23 81.1 µM | IGROV-1 > 100 µM | KM12 92.3 µM | SF-295 97.7 µM | MDA-N > 100 µM | RXF 393 > 100 µM | DU-145 > 100 µM | MDA-MB-435 > 100 µM | MCF7 > 100 µM | A498 > 100 µM | PC-3 > 100 µM | UO-31 79.1 µM | Hs-578T > 100 µM

CSC(=S)Nc1cc(C)ccn1
inactive: HOP-92 79.3 µM | NCI-H23 > 100 µM | IGROV-1 20.8 µM | KM12 > 100 µM | SF-295 76.7 µM | MDA-N > 100 µM | RXF 393 > 100 µM | DU-145 > 100 µM | MDA-MB-435 > 100 µM | MCF7 > 100 µM | NCI-H460 85.9 µM | PC-3 > 100 µM | UO-31 > 100 µM | Hs-578T > 100 µM

C=C1C(=O)O[C@@H]2/C=C(/C)[C@@H](OC(C)=O)C[C@@H](O)/C(C)=C\[C@@H](OC(=O)[C@]3(C)O[C@@H]3C)[C@@H]12
inactive: HOP-92 12.7 µM | NCI-H23 17.3 µM | IGROV-1 16.2 µM | KM12 17.5 µM | SF-295 50.9 µM | MDA-N 15.7 µM | RXF 393 15.5 µM | DU-145 14.6 µM | MDA-MB-435 15.3 µM | MCF7 5.79 µM | A498 18.1 µM | NCI-H460 26.3 µM | PC-3 17.6 µM | Hs-578T 42.6 µM

CN(/N=C/c1ccccc1C(=O)O)C1=NCCCCN1
inactive: HOP-92 > 100 µM | NCI-H23 > 100 µM | IGROV-1 > 100 µM | KM12 > 100 µM | SF-295 > 100 µM | MDA-N > 100 µM | DU-145 > 100 µM | MDA-MB-435 > 100 µM | MCF7 > 100 µM | A498 > 100 µM | NCI-H460 > 100 µM | PC-3 > 100 µM | UO-31 > 100 µM | Hs-578T > 100 µM
